Columns and labels:
Type in all cases: functional
MDA-MB-468 = test: Cytotoxicity against human MDA-MB-468 cells assessed as growth inhibition at 10 uM after 48 hrs by SRB assay relative to control; conditions: MDA-MB-468, 48 h, read-out: GI
BT-549 = test: Cytotoxicity against human BT549 cells assessed as growth inhibition at 10 uM after 48 hrs by SRB assay relative to control; conditions: BT-549, 48 h, read-out: GI
MDA-MB-231 = test: Cytotoxicity against human MDA-MB-231 cells assessed as growth inhibition at 10 uM after 48 hrs by SRB assay relative to control; conditions: MDA-MB-231, 48 h, read-out: GI
MCF7 = test: Cytotoxicity against human MCF7 cells assessed as growth inhibition at 10 uM after 48 hrs by SRB assay relative to control; conditions: MCF7, 48 h, read-out: GI
DU-145 = test: Cytotoxicity against human DU145 cells assessed as growth inhibition at 10 uM after 48 hrs by SRB assay relative to control; conditions: DU-145, 48 h, read-out: GI
PC-3 = test: Cytotoxicity against human PC3 cells assessed as growth inhibition at 10 uM after 48 hrs by SRB assay relative to control; conditions: PC-3, 48 h, read-out: GI
UO-31 = test: Cytotoxicity against human UO31 cells assessed as growth inhibition at 10 uM after 48 hrs by SRB assay relative to control; conditions: UO-31, 48 h, read-out: GI
SK-OV-3 = test: Cytotoxicity against human SKOV3 cells assessed as growth inhibition at 10 uM after 48 hrs by SRB assay relative to control; conditions: SK-OV-3, 48 h, read-out: GI
A498 = test: Cytotoxicity against human A498 cells assessed as growth inhibition at 10 uM after 48 hrs by SRB assay relative to control; conditions: A498, 48 h, read-out: GI
[1] = Cytotoxicity against human NCI-ADR-RES cells assessed as growth inhibition at 10 uM after 48 hrs by SRB assay relative to control; conditions: read-out: GI
OVCAR-5 = test: Cytotoxicity against human OVCAR5 cells assessed as growth inhibition at 10 uM after 48 hrs by SRB assay relative to control; conditions: OVCAR-5, 48 h, read-out: GI
OVCAR-4 = test: Cytotoxicity against human OVCAR4 cells assessed as growth inhibition at 10 uM after 48 hrs by SRB assay relative to control; conditions: OVCAR-4, 48 h, read-out: GI
IGROV-1 = test: Cytotoxicity against human IGROV1 cells assessed as growth inhibition at 10 uM after 48 hrs by SRB assay relative to control; conditions: IGROV-1, 48 h, read-out: GI
OVCAR-3 = test: Cytotoxicity against human OVCAR3 cells assessed as growth inhibition at 10 uM after 48 hrs by SRB assay relative to control; conditions: OVCAR-3, 48 h, read-out: GI
UACC-62 = test: Cytotoxicity against human UACC62 cells assessed as growth inhibition at 10 uM after 48 hrs by SRB assay relative to control; conditions: UACC-62, 48 h, read-out: GI
UACC-257 = test: Cytotoxicity against human UACC257 cells assessed as growth inhibition at 10 uM after 48 hrs by SRB assay relative to control; conditions: UACC-257, 48 h, read-out: GI
SK-MEL-5 = test: Cytotoxicity against human SK-MEL-5 cells assessed as growth inhibition at 10 uM after 48 hrs by SRB assay relative to control; conditions: SK-MEL-5, 48 h, read-out: GI
M14 = test: Cytotoxicity against human M14 cells assessed as growth inhibition at 10 uM after 48 hrs by SRB assay relative to control; conditions: M14, 48 h, read-out: GI
SK-MEL-2 = test: Cytotoxicity against human SK-MEL-2 cells assessed as growth inhibition at 10 uM after 48 hrs by SRB assay relative to control; conditions: SK-MEL-2, 48 h, read-out: GI
Malme-3M = test: Cytotoxicity against human MALME-3M cells assessed as growth inhibition at 10 uM after 48 hrs by SRB assay relative to control; conditions: read-out: GI
LOX IMVI = test: Cytotoxicity against human LOXIMVI cells assessed as growth inhibition at 10 uM after 48 hrs by SRB assay relative to control; conditions: read-out: GI
U-251 = test: Cytotoxicity against human U251 cells assessed as growth inhibition at 10 uM after 48 hrs by SRB assay relative to control; conditions: U-251, 48 h, read-out: GI
SNB-75 = test: Cytotoxicity against human SNB75 cells assessed as growth inhibition at 10 uM after 48 hrs by SRB assay relative to control; conditions: SNB-75, 48 h, read-out: GI
SF-295 = test: Cytotoxicity against human SF295 cells assessed as growth inhibition at 10 uM after 48 hrs by SRB assay relative to control; conditions: SF-295, 48 h, read-out: GI
SF-539 = test: Cytotoxicity against human SF539 cells assessed as growth inhibition at 10 uM after 48 hrs by SRB assay relative to control; conditions: SF-539, 48 h, read-out: GI
SF-268 = test: Cytotoxicity against human SF268 cells assessed as growth inhibition at 10 uM after 48 hrs by SRB assay relative to control; conditions: SF-268, 48 h, read-out: GI
SW-620 = test: Cytotoxicity against human SW620 cells assessed as growth inhibition at 10 uM after 48 hrs by SRB assay relative to control; conditions: SW-620, 48 h, read-out: GI
HCT-116 = test: Cytotoxicity against human HCT116 cells assessed as growth inhibition at 10 uM after 48 hrs by SRB assay relative to control; conditions: HCT-116, 48 h, read-out: GI
NCI-H322M = test: Cytotoxicity against human NCI-H322M cells assessed as growth inhibition at 10 uM after 48 hrs by SRB assay relative to control; conditions: read-out: GI
HOP-62 = test: Cytotoxicity against human HOP62 cells assessed as growth inhibition at 10 uM after 48 hrs by SRB assay relative to control; conditions: HOP-62, 48 h, read-out: GI
HOP-92 = test: Cytotoxicity against human HOP92 cells assessed as growth inhibition at 10 uM after 48 hrs by SRB assay relative to control; conditions: HOP-92, 48 h, read-out: GI
RPMI-8226 = test: Cytotoxicity against human RPMI8226 cells assessed as growth inhibition at 10 uM after 48 hrs by SRB assay relative to control; conditions: RPMI-8226, 48 h, read-out: GI
SR = test: Cytotoxicity against human SR cells assessed as growth inhibition at 10 uM after 48 hrs by SRB assay relative to control; conditions: read-out: GI
K562 = test: Cytotoxicity against human K562 cells assessed as growth inhibition at 10 uM after 48 hrs by SRB assay relative to control; conditions: K562, 48 h, read-out: GI
CCRF-CEM = test: Cytotoxicity against human CCRF-CEM cells assessed as growth inhibition at 10 uM after 48 hrs by SRB assay relative to control; conditions: read-out: GI

| Compound | inhibition of growth at 10 µM (MDA-MB-468) [%] | inhibition of growth at 10 µM (BT-549) [%] | inhibition of growth at 10 µM (MDA-MB-231) [%] | inhibition of growth at 10 µM (MCF7) [%] | inhibition of growth at 10 µM (DU-145) [%] | inhibition of growth at 10 µM (PC-3) [%] | inhibition of growth at 10 µM (UO-31) [%] | inhibition of growth at 10 µM (SK-OV-3) [%] | inhibition of growth at 10 µM (A498) [%] | inhibition of growth at 10 µM [1] [%] | inhibition of growth at 10 µM (OVCAR-5) [%] | inhibition of growth at 10 µM (OVCAR-4) [%] | inhibition of growth at 10 µM (IGROV-1) [%] | inhibition of growth at 10 µM (OVCAR-3) [%] | inhibition of growth at 10 µM (UACC-62) [%] | inhibition of growth at 10 µM (UACC-257) [%] | inhibition of growth at 10 µM (SK-MEL-5) [%] | inhibition of growth at 10 µM (M14) [%] | inhibition of growth at 10 µM (SK-MEL-2) [%] | inhibition of growth at 10 µM (Malme-3M) [%] | further results |
| --- | --- | --- | --- | --- | --- | --- | --- | --- | --- | --- | --- | --- | --- | --- | --- | --- | --- | --- | --- | --- | --- |
| O=c1oc2cc(Br)ccc2cc1-c1nc2ccccc2[nH]1 | < 20 | < 20 | 26 | 30 | 23.6 | < 20 | 22.7 | < 20 | < 20 | < 20 | < 20 | < 20 | < 20 | < 20 | < 20 | < 20 | < 20 | < 20 | < 20 | < 20 | inhibition of growth at 10 µM (LOX IMVI): < 20%; inhibition of growth at 10 µM (U-251): < 20%; inhibition of growth at 10 µM (SNB-75): 22.9%; inhibition of growth at 10 µM (SF-295): < 20%; inhibition of growth at 10 µM (SF-539): < 20%; inhibition of growth at 10 µM (SF-268): < 20%; inhibition of growth at 10 µM (SW-620): < 20%; inhibition of growth at 10 µM (HCT-116): < 20%; inhibition of growth at 10 µM (NCI-H322M): < 20%; inhibition of growth at 10 µM (HOP-62): < 20%; inhibition of growth at 10 µM (HOP-92): 20.1%; inhibition of growth at 10 µM (RPMI-8226): < 20%; inhibition of growth at 10 µM (SR): 21.5%; inhibition of growth at 10 µM (K562): < 20%; inhibition of growth at 10 µM (CCRF-CEM): < 20% |
| O=c1oc2cc(N3CCOCC3)ccc2cc1-c1nc2ccccc2[nH]1 | < 20 | < 20 | < 20 | 62.1 | < 20 | < 20 | 24.9 | < 20 | < 20 | < 20 | < 20 | < 20 | < 20 | < 20 | < 20 | < 20 | < 20 | < 20 | < 20 | < 20 | inhibition of growth at 10 µM (LOX IMVI): < 20%; inhibition of growth at 10 µM (U-251): < 20%; inhibition of growth at 10 µM (SNB-75): < 20%; inhibition of growth at 10 µM (SF-295): < 20%; inhibition of growth at 10 µM (SF-539): < 20%; inhibition of growth at 10 µM (SF-268): < 20%; inhibition of growth at 10 µM (SW-620): < 20%; inhibition of growth at 10 µM (HCT-116): < 20%; inhibition of growth at 10 µM (NCI-H322M): < 20%; inhibition of growth at 10 µM (HOP-62): < 20%; inhibition of growth at 10 µM (HOP-92): 20.7%; inhibition of growth at 10 µM (RPMI-8226): < 20%; inhibition of growth at 10 µM (SR): < 20%; inhibition of growth at 10 µM (K562): < 20%; inhibition of growth at 10 µM (CCRF-CEM): < 20% |
| O=c1oc2cc(NCCO)ccc2cc1-c1nc2ccccc2[nH]1 | 48.4 | 33.1 | 58.9 | 62.1 | < 20 | 56.7 | 41.9 | < 20 | < 20 | 23.7 | < 20 | 44.8 | 24.5 | 32.8 | 27.2 | 28 | 35.8 | 25.4 | < 20 | 29.8 | inhibition of growth at 10 µM (LOX IMVI): 54.3%; inhibition of growth at 10 µM (U-251): 20.7%; inhibition of growth at 10 µM (SNB-75): < 20%; inhibition of growth at 10 µM (SF-295): 24.5%; inhibition of growth at 10 µM (SF-539): 25.9%; inhibition of growth at 10 µM (SF-268): 26.1%; inhibition of growth at 10 µM (SW-620): 21.4%; inhibition of growth at 10 µM (HCT-116): 62.2%; inhibition of growth at 10 µM (NCI-H322M): 29.7%; inhibition of growth at 10 µM (HOP-62): 24.8%; inhibition of growth at 10 µM (HOP-92): < 20%; inhibition of growth at 10 µM (RPMI-8226): 46.6%; inhibition of growth at 10 µM (SR): < 20%; inhibition of growth at 10 µM (K562): 57.3%; inhibition of growth at 10 µM (CCRF-CEM): 72.5% |

From ChEMBL document CHEMBL2396528, “Synthesis of new conjugated coumarin-benzimidazole hybrids and their anticancer activity” (2013)
